In paper PMC5862592, “CDK8/19 inhibition induces premature G1/S transition and ATR-dependent cell death in prostate cancer cells” (Oncotarget, 2018) one finds remaining binding data, which are given here for two molecules.

Read-outs that look alike come from different tables or passages of the source.

Holding throughout (assay): biochemical
What all share (parameters): KINOMEscan active site-directed competition binding assay (DiscoveRx), 456 kinases, per cent of control at 300 nM
Common to all, as to settings: read-out: Percent of Control (%)

In one assay the target is DAPK3 (Homo sapiens, UniProt O43293). The gist of the method:
(§1)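 Values reflect active-site competition binding from a screen of 456 kinases, with test compounds at a fixed 300 nmol/L.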

The next assay deals with AURKC (Homo sapiens, UniProt Q9UQB9). The essentials: as §1
Assay [1] has as its target T1, JAK3(JH1domain-catalytic) (Homo sapiens, UniProt P52333).
T1 construct: JH1domain-catalytic
The essentials: as §1

A further assay has as its target LRRK2 (Homo sapiens, UniProt Q5S007). The gist of the method:
as §1

The next assay concerns the target ACVR2A (Homo sapiens, UniProt P27037). The essentials:
as §1

In a further assay the target is T2, YES (Homo sapiens, UniProt P07947).
T2 construct: gene YES1
The gist of the method:
as §1

A further assay concerns the target EPHA1 (Homo sapiens, UniProt P21709). The essentials:
as §1

The target in the next assay is MAPKAPK2 (Homo sapiens, UniProt P49137). The gist of the method: as §1
Sequence of MAPKAPK2 (P49137 whole entry): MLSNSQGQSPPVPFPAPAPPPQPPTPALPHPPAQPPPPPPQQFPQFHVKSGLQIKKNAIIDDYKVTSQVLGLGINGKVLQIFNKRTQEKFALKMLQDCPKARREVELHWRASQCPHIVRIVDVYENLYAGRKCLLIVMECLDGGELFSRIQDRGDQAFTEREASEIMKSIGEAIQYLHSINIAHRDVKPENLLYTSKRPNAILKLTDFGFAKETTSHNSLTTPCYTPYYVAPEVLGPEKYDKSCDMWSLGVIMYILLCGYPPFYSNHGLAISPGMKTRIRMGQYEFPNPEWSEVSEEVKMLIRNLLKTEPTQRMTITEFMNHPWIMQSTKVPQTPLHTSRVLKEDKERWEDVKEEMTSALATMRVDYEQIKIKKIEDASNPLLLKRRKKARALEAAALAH
The next assay has as its target T3, CDK11 (Homo sapiens, UniProt Q9BWU1).
T3 construct: gene CDK19
The essentials: as §1

For the next assay, the target named is T4, CTK (Homo sapiens, UniProt P42679).
T4 construct: gene MATK
T4 sequence (P42679 whole entry): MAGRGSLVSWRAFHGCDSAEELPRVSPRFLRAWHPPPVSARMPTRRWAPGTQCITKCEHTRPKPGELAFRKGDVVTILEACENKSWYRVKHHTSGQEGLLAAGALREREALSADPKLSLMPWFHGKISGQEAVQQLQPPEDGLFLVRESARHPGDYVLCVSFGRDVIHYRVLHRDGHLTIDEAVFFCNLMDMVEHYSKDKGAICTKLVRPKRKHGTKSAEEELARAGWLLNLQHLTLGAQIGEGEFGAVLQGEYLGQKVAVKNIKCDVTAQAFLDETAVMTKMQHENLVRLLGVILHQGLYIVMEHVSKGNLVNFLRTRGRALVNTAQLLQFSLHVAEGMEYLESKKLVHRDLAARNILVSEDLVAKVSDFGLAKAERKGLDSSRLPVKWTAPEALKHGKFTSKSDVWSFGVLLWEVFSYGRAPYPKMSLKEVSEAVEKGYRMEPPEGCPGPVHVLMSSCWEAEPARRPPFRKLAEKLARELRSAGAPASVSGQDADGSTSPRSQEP
The essentials: as §1

A further assay has as its target ALK(L1196M) (Homo sapiens, UniProt Q9UM73, L1196M). The essentials: as §1
The target of the next assay is EIF2AK1 (Homo sapiens, UniProt Q9BQI3). The gist of the method:
as §1

Assay [2] has as its target T5, RSK2(Kin.Dom.1-N-terminal) (Homo sapiens, UniProt P51812).
T5 construct: gene RPS6KA3; Kin.Dom.1-N-terminal
The gist of the method:
as §1

The target of a further assay is FGFR4 (Homo sapiens, UniProt P22455). The gist of the method:
as §1

Another assay has as its target T6, DCAMKL3 (Homo sapiens, UniProt Q9C098).
T6 construct: gene DCLK3
The essentials:
as §1

For the next assay, the target named is T7, MLK2 (Homo sapiens, UniProt Q02779).
T7 construct: gene MAP3K10
The essentials:
as §1

The target in the next assay is PIK3CA(E545K) (Homo sapiens, UniProt P42336, E545K). The essentials: as §1
The target in another assay is T8, ERK4 (Homo sapiens, UniProt P31152).
T8 construct: gene MAPK4
The gist of the method: as §1

Another assay addresses MAK (Homo sapiens, UniProt P20794). The essentials:
as §1

In another assay the target is T9, TRKA (Homo sapiens, UniProt P04629).
T9 construct: gene NTRK1
The gist of the method: as §1

The next assay addresses CAMK2A (Homo sapiens, UniProt Q9UQM7). The gist of the method:
as §1

Sequence of ACVR2A (P27037 whole entry): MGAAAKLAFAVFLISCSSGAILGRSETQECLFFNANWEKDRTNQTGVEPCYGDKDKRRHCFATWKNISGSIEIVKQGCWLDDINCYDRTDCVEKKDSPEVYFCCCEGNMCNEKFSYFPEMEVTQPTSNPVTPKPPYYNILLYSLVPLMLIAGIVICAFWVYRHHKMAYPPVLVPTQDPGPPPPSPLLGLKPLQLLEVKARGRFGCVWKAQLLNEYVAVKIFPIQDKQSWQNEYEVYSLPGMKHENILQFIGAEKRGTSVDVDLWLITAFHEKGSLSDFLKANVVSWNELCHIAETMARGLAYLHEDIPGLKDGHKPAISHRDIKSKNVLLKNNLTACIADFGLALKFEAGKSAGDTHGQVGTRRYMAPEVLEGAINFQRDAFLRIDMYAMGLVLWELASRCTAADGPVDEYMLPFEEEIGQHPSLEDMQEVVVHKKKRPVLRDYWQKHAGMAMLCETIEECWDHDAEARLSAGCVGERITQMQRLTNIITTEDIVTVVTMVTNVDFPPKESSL
T5 sequence (P51812 whole entry): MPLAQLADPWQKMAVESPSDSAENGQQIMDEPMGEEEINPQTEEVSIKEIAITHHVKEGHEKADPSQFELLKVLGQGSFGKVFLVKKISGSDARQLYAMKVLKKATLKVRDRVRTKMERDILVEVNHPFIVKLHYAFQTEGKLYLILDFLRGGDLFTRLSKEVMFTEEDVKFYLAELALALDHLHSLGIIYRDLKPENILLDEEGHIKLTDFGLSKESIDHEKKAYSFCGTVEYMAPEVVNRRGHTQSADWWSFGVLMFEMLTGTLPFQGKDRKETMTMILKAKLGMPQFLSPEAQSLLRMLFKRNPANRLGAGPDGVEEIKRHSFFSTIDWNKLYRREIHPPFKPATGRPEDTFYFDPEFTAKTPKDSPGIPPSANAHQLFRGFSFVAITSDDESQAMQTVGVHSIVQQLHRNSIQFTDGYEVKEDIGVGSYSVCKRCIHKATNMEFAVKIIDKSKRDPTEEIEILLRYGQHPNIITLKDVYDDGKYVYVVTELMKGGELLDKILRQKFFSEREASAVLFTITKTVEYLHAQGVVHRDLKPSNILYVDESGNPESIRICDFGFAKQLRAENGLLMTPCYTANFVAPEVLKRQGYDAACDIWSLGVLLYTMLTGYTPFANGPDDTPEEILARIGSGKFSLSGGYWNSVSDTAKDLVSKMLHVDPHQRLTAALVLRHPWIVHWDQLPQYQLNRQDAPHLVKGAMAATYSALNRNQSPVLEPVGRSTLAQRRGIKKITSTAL
Sequence of ALK(L1196M) (Q9UM73 whole entry L1196M): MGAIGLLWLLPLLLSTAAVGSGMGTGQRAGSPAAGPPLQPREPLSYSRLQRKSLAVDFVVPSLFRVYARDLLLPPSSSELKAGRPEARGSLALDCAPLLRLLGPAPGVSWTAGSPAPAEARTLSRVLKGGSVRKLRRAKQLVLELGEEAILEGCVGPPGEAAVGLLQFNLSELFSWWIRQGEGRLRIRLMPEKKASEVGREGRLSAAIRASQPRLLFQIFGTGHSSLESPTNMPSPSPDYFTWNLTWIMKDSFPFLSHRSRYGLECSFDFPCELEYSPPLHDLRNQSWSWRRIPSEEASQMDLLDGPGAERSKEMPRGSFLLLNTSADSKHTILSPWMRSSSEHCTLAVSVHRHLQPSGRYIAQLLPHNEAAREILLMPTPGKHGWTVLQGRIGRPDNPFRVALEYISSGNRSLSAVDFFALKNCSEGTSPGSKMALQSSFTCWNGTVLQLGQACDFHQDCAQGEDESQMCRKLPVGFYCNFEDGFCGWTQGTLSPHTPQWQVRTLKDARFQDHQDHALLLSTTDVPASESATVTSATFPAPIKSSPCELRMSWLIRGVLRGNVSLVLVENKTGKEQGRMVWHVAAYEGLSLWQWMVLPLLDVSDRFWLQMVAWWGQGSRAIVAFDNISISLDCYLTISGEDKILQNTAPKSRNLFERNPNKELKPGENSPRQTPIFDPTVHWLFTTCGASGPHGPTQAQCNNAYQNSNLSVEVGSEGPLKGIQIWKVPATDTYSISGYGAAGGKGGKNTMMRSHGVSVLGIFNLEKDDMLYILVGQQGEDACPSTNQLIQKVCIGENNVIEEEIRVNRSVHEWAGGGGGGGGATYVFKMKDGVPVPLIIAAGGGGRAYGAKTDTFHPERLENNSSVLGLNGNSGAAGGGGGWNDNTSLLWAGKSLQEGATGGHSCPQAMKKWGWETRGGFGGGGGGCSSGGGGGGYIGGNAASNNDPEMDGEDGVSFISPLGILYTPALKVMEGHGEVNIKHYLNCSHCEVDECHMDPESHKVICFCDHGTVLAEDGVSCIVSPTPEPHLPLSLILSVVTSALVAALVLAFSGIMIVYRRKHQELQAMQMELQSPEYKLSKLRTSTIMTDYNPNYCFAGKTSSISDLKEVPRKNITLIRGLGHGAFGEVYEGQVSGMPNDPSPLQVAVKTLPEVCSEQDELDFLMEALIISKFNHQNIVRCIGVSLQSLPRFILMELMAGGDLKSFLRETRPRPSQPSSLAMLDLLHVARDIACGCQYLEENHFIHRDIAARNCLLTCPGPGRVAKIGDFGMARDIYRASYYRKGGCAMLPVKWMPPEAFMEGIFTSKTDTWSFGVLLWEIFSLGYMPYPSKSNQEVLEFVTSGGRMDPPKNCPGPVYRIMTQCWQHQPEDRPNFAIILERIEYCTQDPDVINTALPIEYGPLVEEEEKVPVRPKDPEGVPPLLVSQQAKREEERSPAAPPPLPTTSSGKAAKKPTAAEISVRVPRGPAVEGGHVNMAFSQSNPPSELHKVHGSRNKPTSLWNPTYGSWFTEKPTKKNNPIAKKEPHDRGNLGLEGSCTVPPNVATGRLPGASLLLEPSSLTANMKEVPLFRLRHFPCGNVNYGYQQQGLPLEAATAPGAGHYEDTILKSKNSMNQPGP
Sequence of MAK (P20794 whole entry): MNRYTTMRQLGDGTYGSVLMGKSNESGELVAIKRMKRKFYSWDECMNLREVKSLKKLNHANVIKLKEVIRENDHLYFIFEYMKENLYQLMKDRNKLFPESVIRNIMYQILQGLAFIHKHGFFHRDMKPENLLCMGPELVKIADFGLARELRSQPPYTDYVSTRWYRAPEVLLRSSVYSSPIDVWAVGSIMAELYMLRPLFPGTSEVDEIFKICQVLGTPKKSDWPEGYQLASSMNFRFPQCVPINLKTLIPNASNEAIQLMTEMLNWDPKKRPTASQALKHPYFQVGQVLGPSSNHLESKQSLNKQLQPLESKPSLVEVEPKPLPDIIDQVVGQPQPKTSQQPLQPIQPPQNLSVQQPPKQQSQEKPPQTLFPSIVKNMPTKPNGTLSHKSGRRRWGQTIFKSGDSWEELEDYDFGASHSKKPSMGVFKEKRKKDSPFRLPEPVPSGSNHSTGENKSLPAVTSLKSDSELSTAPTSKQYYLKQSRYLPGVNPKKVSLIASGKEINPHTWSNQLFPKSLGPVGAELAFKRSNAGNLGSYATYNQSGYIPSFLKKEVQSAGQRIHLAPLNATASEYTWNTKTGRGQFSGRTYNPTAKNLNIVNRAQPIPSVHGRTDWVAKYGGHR
T6 sequence (Q9C098 whole entry): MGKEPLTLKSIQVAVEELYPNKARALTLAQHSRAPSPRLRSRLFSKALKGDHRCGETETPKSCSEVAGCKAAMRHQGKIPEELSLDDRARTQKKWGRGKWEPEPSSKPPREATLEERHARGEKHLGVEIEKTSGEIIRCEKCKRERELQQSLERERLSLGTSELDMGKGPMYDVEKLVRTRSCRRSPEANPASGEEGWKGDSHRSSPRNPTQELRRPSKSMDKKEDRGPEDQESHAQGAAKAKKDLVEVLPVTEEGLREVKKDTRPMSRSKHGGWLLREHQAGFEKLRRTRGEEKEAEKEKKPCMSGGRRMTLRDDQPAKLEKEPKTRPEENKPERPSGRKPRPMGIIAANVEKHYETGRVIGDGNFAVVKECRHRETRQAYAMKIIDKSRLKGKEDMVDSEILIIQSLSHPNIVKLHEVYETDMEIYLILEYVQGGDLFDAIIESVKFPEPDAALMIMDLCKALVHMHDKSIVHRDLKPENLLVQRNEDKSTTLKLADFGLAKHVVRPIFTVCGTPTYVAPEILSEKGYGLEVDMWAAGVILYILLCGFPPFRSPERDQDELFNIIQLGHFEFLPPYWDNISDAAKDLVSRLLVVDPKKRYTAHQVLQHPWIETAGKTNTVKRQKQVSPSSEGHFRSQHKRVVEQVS

In the case of `O=C(/C=C/c1cnccc1-c1ccc(F)cc1)Nc1ccc(CCc2nnco2)cc1` [T-418, (2E)-3-(4-(4-fluorophenyl)pyridin-3-yl)-N-(4-(2-(1,3,4-oxadiazol-2-yl)ethyl)phenyl)acrylamide], the remaining binding at 0.3 µM at DAPK3 (sheet T-418) came to 83%; at AURKC (sheet T-418), 100%; in assay [1] (sheet T-418), 68%; on LRRK2 (sheet T-418) it was 94%; at ACVR2A (sheet T-418), 91%; at YES (sheet T-418) it was 100%. Moreover, the remaining binding at 0.3 µM at EPHA1 (sheet T-418) was 71%; at MAPKAPK2 (sheet T-418), 100%; on CDK11 (sheet T-418), 6.4%; at CTK (sheet T-418), 100%; at ALK(L1196M) (sheet T-418), 100%; at EIF2AK1 (sheet T-418), 100%. Further, the remaining binding at 0.3 µM in assay [2] (sheet T-418) came to 100%; at FGFR4 (sheet T-418), 80%; on DCAMKL3 (sheet T-418), 83%; on MLK2 (sheet T-418) it was 71%; at PIK3CA(E545K) (sheet T-418) it was 82%; at ERK4 (sheet T-418) it was 100%. The remaining binding at 0.3 µM at MAK (sheet T-418) turned out to be 100%; on TRKA (sheet T-418), 92%; on CAMK2A (sheet T-418), 96%.

On to `Cc1ncccc1Oc1sc(C(N)=O)c2c1-c1c(cnn1C)CC2` [T-474, 1-methyl-8-((2-methylpyridin-3-yl)oxy)-4,5-dihydro-1H-thieno[3,4-g]indazole-6-carboxamide], for which the remaining binding at 0.3 µM at DAPK3 is 100%; at AURKC it was 100%; in assay [1], 72%; at LRRK2, 95%; on ACVR2A, 87%; at YES it was 100%. Further, the remaining binding at 0.3 µM on EPHA1 is 73%; on MAPKAPK2, 100%; on CDK11, 1.1%; at CTK, 100%; on ALK(L1196M), 100%; on EIF2AK1, 100%. In addition, the remaining binding at 0.3 µM in [2] was determined as 100%; at FGFR4 it was 97%; on DCAMKL3 it was 76%; on MLK2, 97%; on PIK3CA(E545K), 100%; at ERK4 it was 100%. The remaining binding at 0.3 µM is 98% on MAK, 95% at TRKA and 97% at CAMK2A.
